Data published in patent publication EP1614683B1, “Indazole compounds and pharmaceutical compositions for inhibiting protein kinases, and methods for their use” (priority 1999, dated 2001).
Values joined by “and” are separate entries in the source; they are usually repeats but may differ in a detail not shown here. Identical values can stand only once. Like-named read-outs stand apart in the source and are kept apart here.

What was measured:
[1] = in vitro; type: in vitro ADME, human; settings: human, microsomes, 2 h, 5 µM
How it was run: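 HLM diluted to 5 mg/mL in 100 mM KPO4, preincubated 10 min at 37 °C with NADPH-regenerating system. Compound (5 µM final) incubated at 37 °C in triplicate, sampled at 0 and 2 h into ice-cold acetonitrile, then LC-MS analysis.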

[2] = molecular target: T1, unphosphorylated VEGF-R2Δ50 (Homo sapiens, UniProt P35968, DEL940-989/E990V); settings: Table 1; for FLVK ** (% inhibition): compound concentration 50 nM; for Ki: read-out: FLVK ** (Ki)
[3] = molecular target: T2, human FAK (FAKcd409) (Homo sapiens, UniProt Q05397, P410T); experiment: FAK fluorescence polarization assay; type: biochemical; settings: read-out: % Inhibition FAK, compound tested at 10 µM
T2 construct: comprises residues methionine 409 to glutamate 689; made in house; host or cells: baculovirus vector expression system (insect cells)
Experimental: FAK Construct for Assay. The catalytic domain of human FAK (FAKcd409) was expressed using the baculovirus vector expression system. […] The protein was purified using classical chromatography techniques.
FAK HTS utilized the fluorescence polarization assay provided by LJL Biosystems. The kinase reaction contained: 100mM Hepes pH 7.5, 10mM MgCl2, 1mM DTT, 1mM ATP, and 1mg/ml poly Glu-Tyr (4: 1). The reaction is initiated by the addition of 5nM FAKcd409. The reaction is terminated by the addition of EDTA followed by addition of fluor-labelled peptide and anti-phosphotyrosine antibody, both provided by LJL Biosystems. Inhibition results are read on a Analyst (LJL) detector.

[4] = molecular target: LCK tyrosine kinase (Homo sapiens, UniProt P06239, C224D/P223M); experiment: LCK spectrophotometric assay; type: biochemical
Experimental: The spectrophotometric assay was carried out as described above for VEGF-R2, except for the following changes in concentration: LCK = 60 nM, MgCl2 = 0 mM, poly(E4Y1) = 20 mM.

[5] = molecular target: T3, CDK4/Cyclin D3 complex (Homo sapiens, UniProt P11802)
[6] = test system: human umbilical vein endothelial cells (HUVEC); experiment: HUVEC proliferation assay (VEGF-stimulated, MTT); type: cell-based; settings: read-out: HUVEC IC50
[7] = molecular target: CDK2/Cyclin A complex (Homo sapiens, UniProt P24941); experiment: CDK2/Cyclin A assay ([32P]ATP incorporation into Rb fragment); type: biochemical; settings: Table 1; read-out: CDK2 * (Ki, cell in µM)
[8] = molecular target: T4, phosphorylated Tie-2 (aa 775-1122) (Homo sapiens, UniProt Q02763); experiment: TIE-2 spectrophotometric assay; type: biochemical; settings: read-out: % Inhibition Tie2-P, compound tested at 10 µM
T4 construct: 4 to 12 nM phosphorylated Tie-2 (aa 775-1122); made in house; host or cells: insect cells
How it was run: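 Human phosphorylated Tie-2 kinase activity was measured spectrophotometrically by coupling ADP formation, from phosphoryl transfer to poly(Glu4 Tyr), to NADH oxidation via pyruvate kinase and lactate dehydrogenase. Absorbance loss at 340 nm was read on a Beckman DU650. Reactions held 1 mM phosphoenolpyruvate, 0.24 mM NADH, 40 mM MgCl2, 5 mM DTT, 0.5 mM ATP, and 15 units/mL each of PK and LDH in 100 mM HEPES, pH 7.5.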

[9] = test system: HCT-116; experiment: HCT-116 cell assay (Table 2); type: cell-based; settings: Homo sapiens
[10] = mouse, in vivo, pH 2.3
[11] = molecular target: human FGF-R1 (Homo sapiens, UniProt P11362, C488A/C584S/L457V); experiment: FGF-R spectrophotometric assay; type: biochemical
Experimental: The spectrophotometric assay was carried out as described above for VEGF-R2, except for the following changes in concentration: FGF-R = 50 nM, ATP = 2 mM, and poly(E4Y1) =15 mM.

[12] = molecular target: T5, human CHK1 (FL-CHK1) (Homo sapiens, UniProt O14757); experiment: CHK1 coupled spectrophotometric assay; type: biochemical
T5 construct: C-terminally His-tagged full-length human CHK1 (FL-CHK1) was expressed using the baculovirus/insect cell system; made in house; host or cells: baculovirus/insect cell system
T5 sequence (O14757 1-476): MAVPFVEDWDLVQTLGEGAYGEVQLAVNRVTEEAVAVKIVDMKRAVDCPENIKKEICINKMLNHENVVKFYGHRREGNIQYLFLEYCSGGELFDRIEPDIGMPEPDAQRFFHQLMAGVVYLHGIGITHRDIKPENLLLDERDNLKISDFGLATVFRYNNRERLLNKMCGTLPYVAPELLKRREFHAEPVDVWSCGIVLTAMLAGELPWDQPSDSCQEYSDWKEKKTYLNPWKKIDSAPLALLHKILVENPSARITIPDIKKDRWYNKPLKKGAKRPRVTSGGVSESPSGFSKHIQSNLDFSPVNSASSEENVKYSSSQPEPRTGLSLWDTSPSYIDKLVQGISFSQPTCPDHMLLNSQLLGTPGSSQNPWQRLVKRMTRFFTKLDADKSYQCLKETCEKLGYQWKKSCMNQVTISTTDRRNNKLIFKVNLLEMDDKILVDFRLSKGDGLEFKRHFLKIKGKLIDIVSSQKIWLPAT
How it was run: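 His-tagged full-length human CHK1 from baculovirus/insect cells, 10 nM, phosphorylating Syntide-2. ADP formation coupled via PK/LDH with PEP to NADH oxidation, followed as absorbance decrease at 340 nm. Ki from initial rates at varying compound concentrations.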

[13] = molecular target: T6, truncated catalytic subunit (gamma subunit) of phosphorylase kinase (amino acids 1-298) (Oryctolagus cuniculus, UniProt P00518); experiment: Phosphorylase kinase assay; type: biochemical; settings: 10 µM of compound; phosphoryl transfer from ATP to phosphorylase b
T6 construct: (gamma subunit) of phosphorylase kinase (amino acids 1-298); made in house
Experimental: In the assay, the purified catalytic subunit is used to phosphorylate phosphorylase b using radiolabled ATP. Briefly, 1.5 mg/ml of phosphorylase b is incubated with 10 nM phosphorylase kinase in 10 mM MgCl2, 50 mM Hepes pH 7.4, at 37 °C. […] The reaction was terminated and proteins were precipitated by the addition of TCA to 10% final concentration. […] The filter plate was then extensively washed with 20% TCA, and dried. Scintilation fluid was then added to the plate and incorporated radiolabel was counted on a Wallac microbeta counter.

[14] = molecular target: T3, CDK4/Cyclin D3 complex; experiment: biochemical; settings: read-out: CDK4* (% inhibition @ 5 µM)
[15] = molecular target: T1, unphosphorylated VEGF-R2Δ50; experiment: biochemical; settings: read-out: FLVK* (% inhibition)
[16] = Isomer stability under assay conditions; type: physicochemical; settings: Z-isomer, isolated pure
Experimental: Reference Example 33(h) was prepared in the same reaction as Reference Example 33(d). […] Found: C (66.36), H (4.08), N (11.49), S (6.55).

[17] = Table 1, compound concentration 1 µM, read-out: Lck-P* (% inhibition)
[18] = read-out: CDK4 * (Ki, cell in µM), Table 1
[19] = Table 1, compound concentration 1 µM

T1 sequence (P35968 with tags, fused parts or gaps DEL940-989/E990V limits assumed): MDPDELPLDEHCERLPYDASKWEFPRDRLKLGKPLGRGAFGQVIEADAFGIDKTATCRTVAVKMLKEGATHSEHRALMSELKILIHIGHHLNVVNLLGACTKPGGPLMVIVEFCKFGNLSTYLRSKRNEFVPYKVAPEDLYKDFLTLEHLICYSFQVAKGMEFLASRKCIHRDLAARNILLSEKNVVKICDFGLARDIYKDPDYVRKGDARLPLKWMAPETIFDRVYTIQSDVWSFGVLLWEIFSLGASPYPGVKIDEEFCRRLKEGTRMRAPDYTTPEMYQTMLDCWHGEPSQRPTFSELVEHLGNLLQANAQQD
human FGF-R1, sequence (P11362 456-766 L457V/C488A/C584S): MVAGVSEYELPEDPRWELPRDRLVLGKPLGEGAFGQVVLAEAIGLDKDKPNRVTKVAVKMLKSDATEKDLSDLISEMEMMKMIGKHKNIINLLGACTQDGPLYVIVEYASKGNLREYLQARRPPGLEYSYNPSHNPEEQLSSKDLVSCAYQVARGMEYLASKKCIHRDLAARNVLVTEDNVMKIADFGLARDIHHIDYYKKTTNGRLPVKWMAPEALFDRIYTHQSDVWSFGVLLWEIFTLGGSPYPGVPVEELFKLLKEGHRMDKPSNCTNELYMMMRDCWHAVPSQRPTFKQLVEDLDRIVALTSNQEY
T3 sequence (P11802 whole entry): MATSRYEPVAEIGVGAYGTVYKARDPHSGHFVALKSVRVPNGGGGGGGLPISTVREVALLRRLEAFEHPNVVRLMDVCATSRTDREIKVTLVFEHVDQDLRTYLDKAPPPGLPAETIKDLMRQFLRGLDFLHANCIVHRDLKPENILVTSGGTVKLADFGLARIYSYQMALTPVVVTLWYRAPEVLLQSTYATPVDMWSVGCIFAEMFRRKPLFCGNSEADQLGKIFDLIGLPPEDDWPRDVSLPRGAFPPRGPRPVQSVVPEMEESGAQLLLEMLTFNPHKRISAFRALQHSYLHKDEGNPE
T3 sequence (P30281 whole entry partner): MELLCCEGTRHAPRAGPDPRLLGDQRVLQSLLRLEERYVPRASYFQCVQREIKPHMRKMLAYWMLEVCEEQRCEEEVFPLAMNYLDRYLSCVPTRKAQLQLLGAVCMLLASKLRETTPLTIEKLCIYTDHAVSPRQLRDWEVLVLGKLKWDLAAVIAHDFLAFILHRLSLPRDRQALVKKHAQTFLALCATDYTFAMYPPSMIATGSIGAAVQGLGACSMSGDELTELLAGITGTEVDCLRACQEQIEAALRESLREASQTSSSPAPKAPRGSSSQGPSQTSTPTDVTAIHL
LCK tyrosine kinase, sequence (P06239 223-509 P223M/C224D): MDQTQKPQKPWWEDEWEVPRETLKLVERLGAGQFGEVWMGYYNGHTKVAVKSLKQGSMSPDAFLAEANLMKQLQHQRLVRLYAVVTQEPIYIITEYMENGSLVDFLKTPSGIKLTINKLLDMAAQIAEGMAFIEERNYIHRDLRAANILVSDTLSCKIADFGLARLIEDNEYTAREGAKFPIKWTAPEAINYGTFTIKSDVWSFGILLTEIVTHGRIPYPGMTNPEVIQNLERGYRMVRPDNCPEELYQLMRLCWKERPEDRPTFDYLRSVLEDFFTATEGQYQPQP
T2 sequence (Q05397 409-689 P410T): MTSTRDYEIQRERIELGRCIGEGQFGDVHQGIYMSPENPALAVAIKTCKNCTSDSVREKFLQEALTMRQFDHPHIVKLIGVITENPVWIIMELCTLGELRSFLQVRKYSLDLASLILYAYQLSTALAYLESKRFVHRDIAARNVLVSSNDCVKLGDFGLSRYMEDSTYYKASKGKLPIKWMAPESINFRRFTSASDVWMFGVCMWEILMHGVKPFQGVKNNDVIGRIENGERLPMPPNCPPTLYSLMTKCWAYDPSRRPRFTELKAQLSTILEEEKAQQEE
T4 sequence (Q02763 775-1122): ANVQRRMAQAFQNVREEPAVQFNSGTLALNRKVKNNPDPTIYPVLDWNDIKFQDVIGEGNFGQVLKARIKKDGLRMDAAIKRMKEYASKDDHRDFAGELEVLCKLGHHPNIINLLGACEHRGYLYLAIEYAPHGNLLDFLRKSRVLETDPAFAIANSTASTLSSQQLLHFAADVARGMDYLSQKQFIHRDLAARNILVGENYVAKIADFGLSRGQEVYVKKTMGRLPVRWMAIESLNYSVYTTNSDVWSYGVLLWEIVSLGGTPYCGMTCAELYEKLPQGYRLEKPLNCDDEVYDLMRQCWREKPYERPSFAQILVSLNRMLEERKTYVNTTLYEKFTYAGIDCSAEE
T6 sequence (P00518 2-299 limits assumed): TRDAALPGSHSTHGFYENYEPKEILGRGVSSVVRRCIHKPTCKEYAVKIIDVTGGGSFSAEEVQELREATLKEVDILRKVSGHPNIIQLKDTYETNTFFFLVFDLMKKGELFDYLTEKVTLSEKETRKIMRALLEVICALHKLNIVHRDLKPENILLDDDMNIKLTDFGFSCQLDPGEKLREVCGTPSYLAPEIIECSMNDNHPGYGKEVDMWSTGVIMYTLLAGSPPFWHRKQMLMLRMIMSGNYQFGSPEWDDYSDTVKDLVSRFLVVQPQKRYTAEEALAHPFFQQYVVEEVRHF

Compound: 6-[2-((4-Aminobenzyl)methylcarbamoyl)phenylsulfanyl]-3-E-[2-(pyridin-2-yl)ethenyl]-1H-indazole [Reference Example 35(I)]
- % remain (HLM, 2 h) [1]: 5%
- FLVK ** (% inhibition) ([2]; listed as 35(l), 0.05 µM): 100% and 99%

Compound: C(=C\c1n[nH]c2cc(Oc3ccccc3)ccc12)/c1ccccc1 [8(a), 3-(E-styryl)-6-phenoxy-1H-indazole]
- inhibition at 10 µM [3]: 3%
- inhibition at 1 µM [4, 17]: 43%
- Ki [5, 18]: > 100 µM
- IC50 ([6]; Homo sapiens, HUVEC): > 1 µM
- Ki [7]: > 100 µM
- inhibition at 10 µM [8]: 55%

Compound: C(=C\c1n[nH]c2cc(Sc3ccccc3)ccc12)/c1ccccc1 [8(c), 3-(E-styryl)-6-phenylsulfanyl-1H-indazole]
- inhibition at 10 µM [3]: 15%
- inhibition at 1 µM [4, 17]: 34%
- Ki [5, 18]: > 100 µM
- IC50 ([6]; Homo sapiens, HUVEC, Table 1): 0.28 µM
- Ki [7]: > 100 µM
- inhibition at 10 µM [8]: 31%

Compound: Oc1ccc(-c2ccc3c(-c4nc5ccccc5[nH]4)n[nH]c3c2)c(Oc2ccccc2)c1 [24(g), 3-1H-Benzoimidazol-2-yl-6-(2-phenoxy-4-hydroxyphenyl)-1H-indazole]
- IC50 [9]: > 5 µM

Compound: O=C(c1cccc(NC(=O)c2ccccn2)c1)c1ccc2c(/C=C/c3ccccn3)n[nH]c2c1 [41 (aa)]
- AUCleast ([10]; ip, 25 mg/kg): 6659 ng·h/mL
- T1/2 ([10]; ip, 25 mg/kg): 2.1 h
- Cmin (7 hr conc.) ([10]; po, 50 mg/kg, 7 h): 5 ng/mL
- AUCleast ([10]; po, 50 mg/kg): 289 ng·h/mL
- T1/2 ([10]; po, 50 mg/kg): 0.9 h
- FGF-P* (% inhibition) [11, 19]: 37%
- % remain (HLM, 2 h) [1]: 100%
- Ki [2]: 0.00011 µM
- Lck-P* (% inhibition) [4, 19]: 49%
- IC50 ([6]; Table 1): 0.001 µM

Compound: CCn1nc(C)cc1C(=O)Nc1cc(C(=O)c2ccc3c(/C=C/c4ccccn4)n[nH]c3c2)c(C)cc1C [41(11)]
- Ki ([11]; Table 1, read-out: FGF-P* (Ki)): 0.011 µM
- % remain (HLM, 2 h) [1]: 85%
- FLVK ** (% inhibition) [2]: 57%
- Lck-P* (% inhibition) [4, 19]: 18%

Compound: O=C(Nc1cccc(C(=O)c2ccc3c(/C=N/n4cnnc4)n[nH]c3c2)c1)c1ccccc1 [Example 42(e), 6-(3-benzamidobenzoyl)-3-E-[N-(4H-1,2,4-triazol-4-yl)iminomethyl]-1H-indazole]
- Ki [2]: 0.0011 µM

Compound: CCOCc1cc(O)c(OC)cc1-c1ccc2c(-c3nc4ccccc4[nH]3)n[nH]c2c1 [Reference Example 24(l), 3-1H-Benzoimidazol-2-yl-6-(2-(ethoxymethyl)-5-methoxy-4-hydroxy-phenyl)-1H-indazole]
- Ki ([5]; read-out: CDK4* (Ki), Table 2): 0.013 µM
- Ki ([5]; read-out: CDK4* (Ki), Table 2, listed as 24(1)): 0.071 µM
- inhibition at 20 µM ([12]; read-out: CHK1* (% inhibition @ 20 µM)): 62%

Compound: CNC(=O)c1ccc2[nH]c(-c3n[nH]c4cc(-c5ccc(O)cc5OC)ccc34)nc2c1 [Reference Example 25(g), 3-(5-methylcarbamoyl-1H-benzoimidazol-2-yl)-6-(2-methoxy-4-hydroxyphenyl)-1H-indazole]
- inhibition at 1 µM ([11]; read-out: FGF* (% inhibition)): 82%
- IC50 [9]: 2 µM
- inhibition at 1 µM ([4]; read-out: Lck* (% inhibition)): 76%
- inhibition at 1 µM ([12]; read-out: CHK1* (% inhibition)): 21%

Compound: COc1cc(O)ccc1-c1ccc2c(-c3nc4ccc(S(N)(=O)=O)cc4[nH]3)n[nH]c2c1 [Reference Example 25(i), 3-(5-Aminosulfonyl-1H-benzoimidaxol-2-yl)-6-(2-methoxy-4-hydroxy-phenyl)-1H-indazole]
- IC50 [9]: > 5 µM

Compound: C(=C\c1n[nH]c2cc(-c3ccccc3)ccc12)/c1ccccc1 [Reference Example 27(a), 6-phenyl-3-E-styryl-1H-indazole]
- inhibition at 10 µM [13]: 37%
- inhibition at 5 µM [14]: 28%
- inhibition at 1 µM [15]: 71%

Compound: O=C(Nc1cccc(Cl)c1)c1ccccc1Sc1ccc2c(/C=C\c3ccccn3)n[nH]c2c1 [Reference Example 33(h), 6-[2-(3-chlorophenylcarbamoyl)phenysulfanyl]-3-Z-[2-(pyridin-2-yl)ethenyl]-1H-indazole]
- isomerization under assay conditions [16]: found to isomerize to Reference Example 33(d) under assay conditions
